Measurements as given in patent US20210330648A1, “Pharmaceutical composition and use thereof” (ALPHALA CO., LTD., priority 2020, published 2021).
In brackets after ≈: the same amount, converted by molar mass.

Key:
[1] = indicates poor aqueous solubility but good membrane permeability; cited from earlier work
[2] = In vitro dissolution testing, USP apparatus Type 2 (paddles); format: physicochemical; settings: pH 6.8 phosphate buffer with 0.25% SDS, 900 mL, 75 rpm, 37° C.
Method: In vitro dissolution testing was performed using an USP dissolution apparatus Type 2 (paddles) at 75 rpm (250 rpm at infinity) using 900 mL phosphate buffer pH 6.8 with 0.25% w/v SDS as the dissolution medium at 37 0.5° C.

[3] = Solubility in buffers or solutions, LC-MS/MS; format: physicochemical; settings: for Solubility (mg/ml): 37° C., 24 hrs
Method: The method for measuring the solubilities of the formulations is briefly described. The test formulation was added into indicated buffers or solutions (ddH2O or 0.9% saline, pH 7.4) to the final concentration of 3 mg/mL, followed by sonicating for 30 mins. Next, the mixture was put into 37° C. water bath for 24 hrs. The mixture was mixed well by vortex and 1 mL of mixture was transferred into the 1.5 mL eppendorf tube, followed by centrifuging at 20817 xg for 30 mins. 10 μL of the supernatant was collected, and the concentration of the collected supernatant was determined by LC-MS/MS.

[4] = Oral bioavailability / pharmacokinetics in Beagle dogs; format: in vivo; settings: dog, plasma, pH 7.4, IV bolus, 40 to 50 mg, vehicle 0.1M NaHCO3 pH7.4, read-out: AUC (area under the curve) of IV bolus
Method: Briefly, three healthy, research Beagle dogs, aged 4˜10 years and body weight 9˜12 kg were used. The pharmacokinetics experiments have intravenous bolus (IV bolus) and oral groups.
For the IV bolus and oral groups, the dogs received the drugs after fasting for 4 hours, and the blood samples of the dogs were taken before administration. The blood samples were collected at pre-assigned times (10 min, 1 hr, 2 hr, 4 hr, 5 hr, 7 hr and 24 hr) after administration. The concentrations of the drug in plasma were determined with validated high performance liquid chromatography.
The plasma concentration data were analyzed and modeled by the non-compartmental analysis to obtain pharmacokinetics parameters.

Structure (SMILES)	Biopharmaceutical Classification System (BCS) class [1]	In vitro dissolution ([2]; 0 min)	In vitro dissolution ([2]; 5 min)	In vitro dissolution ([2]; 10 min)	In vitro dissolution ([2]; 15 min)	In vitro dissolution ([2]; 20 min)	In vitro dissolution ([2]; 30 min)	In vitro dissolution ([2]; 45 min)	In vitro dissolution ([2]; 60 min)	In vitro dissolution ([2]; 90 min)	In vitro dissolution ([2]; 120 min)	Solubility (mg/ml) ([3]; H2O (pH 7.0))	Solubility (mg/ml) ([3]; Saline (pH 7.4))	solubility at 24 h ([3]; USP pH 6.8 buffer, aqueous buffer, thermodynamic from solid, USP pH 6.8, 37° C.)	AUC [4]
CCOC(=O)CCNC(=O)c1ccc(N[C@H](c2ccc(-c3nnc(-c4ccccc4)o3)cc2)C(C)C)cc1 [ALP001E]	Class II	0.00%	4.40%	3.69%	4.73%	2.87%	1.18%	1.26%	2.11%	2.77%	13.04%	<LOQ	<LOQ	0.44 µg/mL (≈ 0.858 µM)	
CC(C)[C@H](Nc1ccc(C(=O)NCCC(=O)O)cc1)c1ccc(-c2nnc(-c3ccccc3)o2)cc1 [ALP001]															2180 ng·h/mL
